Patent US8012969B2, “11C-labeled benzyl-lactam compounds and their use as imaging agents” (GE Healthcare Limited, priority 2005, dated 2011)

What was measured:
5HT1B receptor [1] = molecular target: T1, 5HT1B receptor (Cavia porcellus, UniProt O08892); assay: in-vitro autoradiographies with compound I-B; type: binding; settings: in-vitro autoradiography, Guinea pig
T1 construct: in-vitro autoradiographies and ex-vivo experiments in Guinea pig; from tissue; host or cells: guinea pig brain (external globus pallidus, ventral pallidum)

5HT1B receptor [2] = molecular target: T1, 5HT1B receptor; assay: ex-vivo experiments with compound I-B; type: in vivo; settings: Guinea pig
5HT1B receptor [3] = molecular target: T2, 5HT1B receptor (Macaca mulatta, UniProt F6SFA9); assay: in-vivo PET-experiments with compound I-B; settings: Rhesus monkeys
T2 construct: in-vivo PET-experiments in Rhesus monkeys; from tissue; host or cells: brain of living rhesus monkeys (PET)
T2 sequence (F6SFA9 1-390): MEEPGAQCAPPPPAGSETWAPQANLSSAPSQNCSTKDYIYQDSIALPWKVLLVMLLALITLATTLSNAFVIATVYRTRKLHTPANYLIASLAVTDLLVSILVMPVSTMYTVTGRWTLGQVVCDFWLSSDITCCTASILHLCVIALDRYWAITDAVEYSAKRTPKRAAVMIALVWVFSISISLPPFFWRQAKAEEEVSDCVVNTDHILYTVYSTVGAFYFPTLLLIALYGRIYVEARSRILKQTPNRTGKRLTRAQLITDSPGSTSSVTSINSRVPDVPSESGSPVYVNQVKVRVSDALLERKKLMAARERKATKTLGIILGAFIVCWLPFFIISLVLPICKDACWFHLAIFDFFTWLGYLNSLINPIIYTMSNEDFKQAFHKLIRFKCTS

T1 sequence (O08892 whole entry): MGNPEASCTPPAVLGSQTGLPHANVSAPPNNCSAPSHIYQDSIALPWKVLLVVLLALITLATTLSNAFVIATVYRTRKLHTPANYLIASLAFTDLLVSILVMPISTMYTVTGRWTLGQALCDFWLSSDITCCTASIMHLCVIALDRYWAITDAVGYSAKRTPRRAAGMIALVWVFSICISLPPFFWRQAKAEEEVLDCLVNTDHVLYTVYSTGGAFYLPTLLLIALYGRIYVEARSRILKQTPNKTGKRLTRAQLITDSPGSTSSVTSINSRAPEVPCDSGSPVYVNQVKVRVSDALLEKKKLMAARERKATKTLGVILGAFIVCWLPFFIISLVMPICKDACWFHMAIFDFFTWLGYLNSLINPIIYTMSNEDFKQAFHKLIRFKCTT

Compound: COC(C)(C)c1ccc(N2CC[C@@H](Cc3ccccc3N3CCN([11CH3])CC3)C2=O)cc1 [compound I-B, R-1-[4-(2-methoxy-isopropyl)-phenyl]-3-[2-(4-[^11C]methyl-piperazin-1-yl)benzyl]-pyrrolidin-2-one]
- sensitivity of uptake to blocking by other 5HT1B antagonists (5HT1B receptor [1]): sensitive to blocking by other 5HT1B antagonists in a dose dependent manner
- specific uptake (regional distribution) (5HT1B receptor [1]): specific uptake of compound I-B mainly in the external globus pallidus and ventral pallidum
- sensitivity of uptake to blocking by other 5HT1B antagonists (5HT1B receptor [2]): sensitive to blocking by other 5HT1B antagonists in a dose dependent manner
- specific uptake (regional distribution) (5HT1B receptor [2]): specific uptake of compound I-B mainly in the external globus pallidus and ventral pallidum
- sensitivity of uptake to blocking by other 5HT1B antagonists (5HT1B receptor [3]): sensitive to blocking by other 5HT1B antagonists in a dose dependent manner
- specific uptake (regional distribution) (5HT1B receptor [3]): specific uptake of compound I-B mainly in the external globus pallidus and ventral pallidum
